In BindingDB's records for patent US20240000767 (Bayer Aktiengesellschaft, 2024):

Target: T1, Alpha-2C adrenergic receptor (Homo sapiens, UniProt P18825)
T1 sequence (P18825 whole entry): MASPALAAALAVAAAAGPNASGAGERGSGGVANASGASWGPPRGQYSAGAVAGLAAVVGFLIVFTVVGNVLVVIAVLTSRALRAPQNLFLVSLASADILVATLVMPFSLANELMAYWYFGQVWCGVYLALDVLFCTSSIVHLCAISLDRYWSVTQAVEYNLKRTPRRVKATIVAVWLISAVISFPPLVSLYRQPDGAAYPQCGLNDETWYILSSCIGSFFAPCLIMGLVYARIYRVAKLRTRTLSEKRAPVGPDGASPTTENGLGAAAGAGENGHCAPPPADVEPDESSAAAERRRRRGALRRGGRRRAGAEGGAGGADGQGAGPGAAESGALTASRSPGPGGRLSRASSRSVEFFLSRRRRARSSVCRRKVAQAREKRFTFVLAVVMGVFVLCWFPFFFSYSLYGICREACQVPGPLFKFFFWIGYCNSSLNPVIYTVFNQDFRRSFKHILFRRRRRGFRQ
Assay: In Vitro Radioligand Binding Assay
Description: In Vitro Radioligand Binding Studies for Determination of the Dissociation Constants K1 at the Human Adrenoreceptor ADRA2C (Eurofins Panlabs Discovery Services, Taiwan, Ltd)A competition assay based on [3H] rauwolscine as radioliganden was used to determine the binding affinity of the test substances at the human ADRA2C receptor.To configure the competition assay, the equilibrium dissociation constant Kd of the radioligand [3H] rauwolscine was determined in a saturation experiment. To this end, homogenates of CHO-K1 cells recombinantly expressing the human ADRA2C receptor were incubated with increasing concentrations of the radiotracers for 1 h at 4° C. in binding buffer (50 mM Tris-HCl, 1 mM EDTA, pH 7.4). Unspecific binding was determined by addition of an excess of the not radioactively labelled ligand prazosin (10 μM). The radioactivity was determined in a scintiation counter.The competition experiments were carried out in the presence of 0.5 nM [3H] rauwolscine and increasing concentrations of the test substances to be characterized under the conditions described above.

| SMILES | IC50 |
| --- | --- |
| C[C@@H]1CCCN(C2CCN(c3ncc(C(=O)NCc4cc(C(F)(F)F)ccn4)s3)CC2)C1 [US20240000767, Example 18] | 6.8 µM |
| C[C@@H]1CCCN(C2CCN(c3nc(Br)c(C(=O)NCc4ncc(F)cc4F)s3)CC2)C1 [US20240000767, Example 119] | 0.03 µM |
